Experimental findings from US20090325959A1 (priority 2008, published 2009) are described below.

As a reminder, the Ki is the dissociation constant of the complex between target and ligand, obtained from inhibition or displacement.

The target of one experiment is T1, ROCK2 (Homo sapiens, UniProt O75116).
T1 construct: purchased Upstate/Chemicon 14-451
The experiment can be described thus: Rho kinase inhibition assay (IMAP fluorescence polarization), ROCK2.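 Also: kinase reaction started with 10 µM ATP and run 60 min at room temperature, then phosphorylated substrate captured on IMAP beads for 30 min and fluorescence polarization read in mP.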 Type of experiment: biochemical. A general note: In fluorescence polarisation assays a small probe gives low polarisation when free and higher when bound to something large.

Another experiment addresses T2, ROCK1 (Homo sapiens, UniProt Q13464).
T2 construct: purchased Upstate/Chemicon 14-601
Put plainly: Rho kinase inhibition assay (IMAP fluorescence polarization), ROCK1.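 Also: kinase reaction run 60 min at room temperature, then phosphorylated substrate captured on IMAP beads for 30 min, with fluorescence polarization read in mP.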 Type of experiment: biochemical.

The mark [1] stands for this setting: 10 μM ATP, read-out: ROCK2 Ki, Avg.

Read-outs that look alike come from different tables or passages of the source.

T2 sequence (Q13464 17-535 limits assumed): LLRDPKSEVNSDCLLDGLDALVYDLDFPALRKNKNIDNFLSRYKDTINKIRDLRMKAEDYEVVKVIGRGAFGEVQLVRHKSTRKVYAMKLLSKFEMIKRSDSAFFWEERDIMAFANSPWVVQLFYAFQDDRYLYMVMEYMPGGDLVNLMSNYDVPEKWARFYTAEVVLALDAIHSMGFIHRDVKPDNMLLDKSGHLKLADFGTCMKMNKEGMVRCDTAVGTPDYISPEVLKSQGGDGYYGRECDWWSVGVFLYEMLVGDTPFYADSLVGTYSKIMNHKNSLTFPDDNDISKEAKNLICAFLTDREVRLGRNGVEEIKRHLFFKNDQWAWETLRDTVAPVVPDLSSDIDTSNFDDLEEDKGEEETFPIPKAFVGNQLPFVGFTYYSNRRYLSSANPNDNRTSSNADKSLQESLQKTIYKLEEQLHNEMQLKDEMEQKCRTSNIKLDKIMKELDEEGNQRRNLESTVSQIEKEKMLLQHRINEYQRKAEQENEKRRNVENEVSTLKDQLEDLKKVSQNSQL
T1 sequence (O75116 11-552 limits assumed): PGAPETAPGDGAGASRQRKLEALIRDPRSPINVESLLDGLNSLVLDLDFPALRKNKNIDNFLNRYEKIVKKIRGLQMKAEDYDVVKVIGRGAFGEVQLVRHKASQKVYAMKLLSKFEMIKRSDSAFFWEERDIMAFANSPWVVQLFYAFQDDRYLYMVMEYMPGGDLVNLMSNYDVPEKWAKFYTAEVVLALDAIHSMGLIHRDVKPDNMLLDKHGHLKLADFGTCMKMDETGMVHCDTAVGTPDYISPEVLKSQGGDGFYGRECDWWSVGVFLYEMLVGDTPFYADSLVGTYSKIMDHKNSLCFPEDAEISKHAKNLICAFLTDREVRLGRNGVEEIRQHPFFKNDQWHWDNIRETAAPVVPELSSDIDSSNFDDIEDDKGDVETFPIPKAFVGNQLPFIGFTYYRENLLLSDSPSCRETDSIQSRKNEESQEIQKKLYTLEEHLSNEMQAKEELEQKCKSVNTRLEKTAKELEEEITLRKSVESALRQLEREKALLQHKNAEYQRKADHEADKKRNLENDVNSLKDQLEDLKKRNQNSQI
Procedure for ROCK1: (§1) Following the pre-incubation, 10 μM ATP was added to initiate the reaction. After 60 minutes at room temperature, Molecular Devices IMAP™ binding solution was added to bind phosphorylated substrate. After 30 minutes of incubation in the presence of the IMAP™ beads, the fluorescence polarization was read and the ratio was reported as mP. IC50 values for compounds and EC50 values for ATP were calculated using the Prism software from Graphpad.
Procedure for ROCK2: as §1

In the case of `CC1(C)OC[C@H](COc2cccc(CN3CCC[C@@H](Nc4ccc5[nH]ncc5c4)C3)c2)O1` [Compound 1.222, N-((R)-1-(3-(((S)-2,2-dimethyl-1,3-dioxolan-4-yl)methoxy)benzyl)piperidin-3-yl)-1H-indazol-5-amine], the Ki was determined as 75.5 nM at ROCK2 (setting [1]) and 229 nM at ROCK1 (Avg, 10 μM ATP).
In the case of `O=C(O)COc1cccc(CN2CC[C@@H](Nc3cccc4cnccc34)C2)c1` [Compound 2.044, (R)-2-(3-((3-(isoquinolin-5-ylamino)pyrrolidin-1-yl)methyl)phenoxy)acetic acid], the Ki at ROCK2 (setting [1]) was determined as 24.1 nM; at ROCK1 (Avg, 10 μM ATP) it was 81.4 nM.
For `CN(c1cccc(CN2CCC[C@H](Nc3ccc4[nH]ncc4c3)C2)c1)S(C)(=O)=O` [Compound 1.198, (S)-N-(3-((3-(1H-indazol-5-ylamino)piperidin-1-yl)methyl)phenyl)-N-methylmethanesulfonamide], in that order: 24.7 nM and 585 nM.
For `CNC(=O)Nc1cccc(CN2CCC[C@@H](Nc3ccc4[nH]ncc4c3)C2)c1` [Compound 1.265, (R)-1-(3-((3-(1H-indazol-5-ylamino)piperidin-1-yl)methyl)phenyl)-3-methylurea], in that order: 21.6 nM and 162 nM.
The corresponding values for `OCCn1ccc2cc(CN3CCC[C@@H](Nc4ccc5[nH]ncc5c4)C3)ccc21` [Compound 1.268, (R)-2-(5-((3-(1H-indazol-5-ylamino)piperidin-1-yl)methyl)-1H-indol-1-yl)ethanol] are 40.7 nM and 404 nM.
Consider `OCCOc1cccc(CN2CCC[C@H](Nc3ccc4[nH]ncc4c3)C2)c1` [Compound 1.090, (S)-2-(3-((3-(1H-indazol-5-ylamino)piperidin-1-yl)methyl)phenoxy)ethanol], for which the Ki came to 24.9 nM at ROCK2 (setting [1]) and 281 nM at ROCK1 (Avg, 10 μM ATP).
The corresponding values for `CCSc1ccc(CN2CCC[C@@H](Nc3ccc4[nH]ncc4c3)C2)cc1` [Compound 1.189, (R)-N-(1-(4-(ethylthio)benzyl)piperidin-3-yl)-1H-indazol-5-amine] are 34.3 nM and 188 nM.
The corresponding values for `c1ccc(Cn2ccnc2CN2CCC[C@@H](Nc3ccc4[nH]ncc4c3)C2)cc1` [Compound 1.263, (R)-N-(1-((1-benzyl-1H-imidazol-2-yl)methyl)piperidin-3-yl)-1H-indazol-5-amine] are 453 nM and 2130 nM.
For `C[C@@H](O)COc1cccc(CN2CCC[C@@H](Nc3ccc4[nH]ncc4c3)C2)c1` [Compound 1.116, (R)-1-(3-(((R)-3-(1H-indazol-5-ylamino)piperidin-1-yl)methyl)phenoxy)propan-2-ol], in that order: 48.9 nM and 258 nM.
`c1cc2c(cc1CN1CCC[C@@H](Nc3ccc4[nH]ncc4c3)C1)OCCO2` [Compound 1.177, (R)-N-(1-((2,3-dihydrobenzo[b][1,4]dioxin-6-yl)methyl)piperidin-3-yl)-1H-indazol-5-amine]: the Ki on ROCK2 (setting [1]) was 18.2 nM; on ROCK1 (Avg, 10 μM ATP), 156 nM.
`NC(=O)COc1cccc(CN2CCC[C@@H](Nc3ccc4[nH]ncc4c3)C2)c1` [Compound 1.098, 2-(3-((3-(1H-indazol-5-ylamino)piperidin-1-yl)methyl)phenoxy)acetamide]: at ROCK2 (setting [1]), the Ki came out at 25 nM.
`c1cc(N[C@@H]2CCN(Cc3ccsc3)C2)c2ccncc2c1` [Compound 2.088, (R)-N-(1-(thiophen-3-ylmethyl)pyrrolidin-3-yl)isoquinolin-5-amine]: the Ki on ROCK2 (setting [1]) stood at 13.6 nM; on ROCK1 (Avg, 10 μM ATP), 38.7 nM.
`Cn1c(CN2CC[C@@H](Nc3cccc4cnccc34)C2)nc2ccccc21` [Compound 2.075, (R)-N-(1-((1-methyl-1H-benzo[d]imidazol-2-yl)methyl)pyrrolidin-3-yl)isoquinolin-5-amine]: the Ki turned out to be 21.7 nM on ROCK2 (setting [1]) and 123 nM on ROCK1 (Avg, 10 μM ATP).
For `CCOC(=O)c1ccc(CN2CCC[C@@H](Nc3ccc4[nH]ncc4c3)C2)cc1` [Compound 1.209, (R)-ethyl 4-((3-(1H-indazol-5-ylamino)piperidin-1-yl)methyl)benzoate], the Ki was 470 nM at ROCK2 (setting [1]) and 4590 nM on ROCK1 (Avg, 10 μM ATP).
As for `O=C(O)COc1cccc(CN2CCC[C@H](Nc3ccc4[nH]ncc4c3)C2)c1` [Compound 1.196, (S)-2-(3-((3-(1H-indazol-5-ylamino)piperidin-1-yl)methyl)phenoxy)acetic acid], the Ki worked out at 39.8 nM on ROCK2 (setting [1]) and 711 nM at ROCK1 (Avg, 10 μM ATP).
For `CS(=O)(=O)Nc1cccc(CN2CC[C@H](Nc3ccc4[nH]ncc4c3)C2)c1` [Compound 1.095, (S)-N-(3-((3-(1H-indazol-5-ylamino)pyrrolidin-1-yl)methyl)phenyl)methanesulfonamide], in that order: 49.5 nM and 275 nM.
Regarding `Brc1cccc(CN2CCC[C@@H](Nc3ccc4[nH]ncc4c3)C2)c1` [Compound 1.210, (R)-N-(1-(3-bromobenzyl)piperidin-3-yl)-1H-indazol-5-amine], the Ki was 25.5 nM on ROCK2 (setting [1]) and 95.1 nM at ROCK1 (Avg, 10 μM ATP).
For `N#Cc1cccc(CN2CCC(Nc3cccc4cnccc34)C2)c1` (stereo not drawn) [Compound 2.007, 3-((3-(isoquinolin-5-ylamino)pyrrolidin-1-yl)methyl)benzonitrile], in that order: 179 nM and 390 nM.
Take `Clc1ccc(CN2CC[C@@H](Nc3ccc4[nH]ncc4c3)C2)cc1` [Compound 1.241, (R)-N-(1-(4-chlorobenzyl)pyrrolidin-3-yl)-1H-indazol-5-amine]: the Ki at ROCK1 (Avg, 10 μM ATP) turned out to be 65.1 nM.
In the case of `Clc1ccc(CN2CC[C@@H](Nc3ccc4[nH]ncc4c3)C2)cc1Cl` [Compound 1.254, (R)-N-(1-(3,4-dichlorobenzyl)pyrrolidin-3-yl)-1H-indazol-5-amine], the Ki at ROCK2 (setting [1]) came to 39 nM; on ROCK1 (Avg, 10 μM ATP), 116 nM.
In the case of `O=S(=O)(Nc1cccc(CN2CCC[C@H](Nc3ccc4[nH]ncc4c3)C2)c1)N1CCCCC1` [Compound 1.270, (S)-N-(3-((3-(1H-indazol-5-ylamino)piperidin-1-yl)methyl)phenyl)piperidine-1-sulfonamide], the Ki at ROCK2 (setting [1]) came to 9.9 nM; at ROCK2 (average Ki, read-out: ROCK2 Ki) it was 9.9 nM; on ROCK1 (Avg, 10 μM ATP), 130 nM; at ROCK1 (average Ki), 130 nM.
As for `O=C(OCCOc1cccc(CN2CCC[C@H](Nc3ccc4[nH]ncc4c3)C2)c1)c1ccccc1` [Compound 1.224, (S)-2-(3-((3-(1H-indazol-5-ylamino)piperidin-1-yl)methyl)phenoxy)ethyl benzoate], the Ki came out at 77.5 nM at ROCK2 (setting [1]) and 487 nM at ROCK1 (Avg, 10 μM ATP).
For `CS(=O)(=O)c1ccc(CN2CCC[C@@H](Nc3ccc4[nH]ncc4c3)C2)cc1` [Compound 1.205, (R)-N-(1-(4-(methylsulfonyl)benzyl)piperidin-3-yl)-1H-indazol-5-amine], in that order: 46.4 nM and 498 nM.
For `Cc1ccc(CN2CC[C@@H](Nc3cccc4c[n+]([O-])ccc34)C2)cc1OCCO` [Compound 2.080, (R)-5-(1-(3-(2-hydroxyethoxy)-4-methylbenzyl)pyrrolidin-3-ylamino)isoquinoline 2-oxide], in that order: 126 nM and 214 nM.
For `c1cc(CN2CCC[C@@H](Nc3ccc4[nH]ncc4c3)C2)cc(-c2ccco2)c1` [Compound 1.250, (R)-N-(1-(3-(furan-2-yl)benzyl)piperidin-3-yl)-1H-indazol-5-amine], in that order: 45.8 nM and 247 nM.
In the case of `FC(F)(F)c1cccc(CN2CC[C@@H](Nc3cccc4cnccc34)C2)c1` [Compound 2.049, (R)-N-(1-(3-(trifluoromethyl)benzyl)pyrrolidin-3-yl)isoquinolin-5-amlne], the Ki at ROCK2 (setting [1]) is 48 nM; on ROCK1 (Avg, 10 μM ATP) it was 113 nM.
Take `Cc1ccc(CN2CC[C@@H](Nc3cccc4cnccc34)C2)cc1NS(=O)(=O)N(C)C` [Compound 2.077]: the Ki on ROCK1 (Avg, 10 μM ATP) stood at 33.7 nM; on ROCK1 (average Ki), 33.7 nM.
Turning to `CCOc1cccc(CN2CCC[C@H](Nc3ccc4[nH]ncc4c3)C2)c1` [Compound 1.179, (S)-N-(1-(3-ethoxybenzyl)piperidin-3-yl)-1H-indazol-5-amine], the Ki at ROCK2 (setting [1]) worked out at 19.3 nM; on ROCK1 (Avg, 10 μM ATP), 292 nM.
Regarding `COc1ccc(CN2CCC[C@H](Nc3ccc4[nH]ncc4c3)C2)cc1NS(C)(=O)=O` [Compound 1.234, (S)-N-(5-((3-(1H-indazol-5-ylamino)piperidin-1-yl)methyl)-2-methoxyphenyl)methanesulfonamide], the Ki at ROCK2 (setting [1]) turned out to be 166 nM; on ROCK1 (Avg, 10 μM ATP) it was 1740 nM.
The corresponding values for `c1c[nH]c(CN2CCC[C@H](Nc3ccc4[nH]ncc4c3)C2)n1` [Compound 1.256, (S)-N-(1-((1H-imidazol-2-yl)methyl)piperidin-3-yl)-1H-indazol-5-amine] are 85.5 nM and 700 nM.
As to `Cc1c(CN2CCC[C@H](Nc3ccc4[nH]ncc4c3)C2)cccc1NS(=O)(=O)N(C)C` [Compound 1.275], the inhibition constant (Ki) at ROCK1 (Avg, 10 μM ATP) worked out at 402 nM; at ROCK1 (average Ki) it was 402 nM.
With `CN(C)S(=O)(=O)Nc1cccc(CN2CCC[C@H](Nc3ccc4[nH]ncc4c3)C2)c1` [Compound 1.261], the Ki on ROCK1 (Avg, 10 μM ATP) was 307 nM; on ROCK1 (average Ki), 307 nM.
Consider `NCc1ccc(CN2CCC[C@@H](Nc3ccc4[nH]ncc4c3)C2)cc1` [Compound 1.188, (R)-N-(1-(4-(aminomethyl)benzyl)piperidin-3-yl)-1H-indazol-5-amine], for which the Ki on ROCK2 (read-out: ROCK2 Ki, Avg) came to 653 nM.
With `COc1nccc2c(N[C@@H]3CCN(Cc4ccc(C)c(OCCO)c4)C3)cccc12` [Compound 2.094, (R)-2-(5-((3-(1-methoxyisoquinolin-5-ylamino)pyrrolidin-1-yl)methyl)-2-methylphenoxy)ethanol], at ROCK1 (Avg, 10 μM ATP), the affinity, expressed as Ki, was 16600 nM.
In the case of `COc1c(CN2CC[C@@H](Nc3cccc4cnccc34)C2)cccc1NS(=O)(=O)N(C)C` [Compound 2.097], the Ki at ROCK1 (Avg, 10 μM ATP) is 35.4 nM; at ROCK1 (average Ki) it was 35.4 nM.
As for `CC1CNCCN1S(=O)(=O)c1cccc2cnccc12` (stereo not drawn) [Compound H7, reference compound], the Ki on ROCK2 (setting [1]) is 125 nM.
